Test results from ChEMBL document CHEMBL3407405 (J Med Chem, 2015).

Columns and labels:
Estrogen receptor beta [1] = biological target: T1, Estrogen receptor beta (Homo sapiens, UniProt Q92731); experiment: Displacement of [3H]estradiol from human full-length ERbeta after 18 to 24 hrs by relative binding affinity/competitive radiometric binding assay relative to estradiol; conditions: concentration not given here
[2] = biological target: T2, Estrogen receptor (Homo sapiens) (UniProt P03372); experiment: Displacement of [3H]estradiol from human full-length ERalpha after 18 to 24 hrs by relative binding affinity/competitive radiometric binding assay relative to estradiol; conditions: concentration not given here
T2 sequence (whole entry): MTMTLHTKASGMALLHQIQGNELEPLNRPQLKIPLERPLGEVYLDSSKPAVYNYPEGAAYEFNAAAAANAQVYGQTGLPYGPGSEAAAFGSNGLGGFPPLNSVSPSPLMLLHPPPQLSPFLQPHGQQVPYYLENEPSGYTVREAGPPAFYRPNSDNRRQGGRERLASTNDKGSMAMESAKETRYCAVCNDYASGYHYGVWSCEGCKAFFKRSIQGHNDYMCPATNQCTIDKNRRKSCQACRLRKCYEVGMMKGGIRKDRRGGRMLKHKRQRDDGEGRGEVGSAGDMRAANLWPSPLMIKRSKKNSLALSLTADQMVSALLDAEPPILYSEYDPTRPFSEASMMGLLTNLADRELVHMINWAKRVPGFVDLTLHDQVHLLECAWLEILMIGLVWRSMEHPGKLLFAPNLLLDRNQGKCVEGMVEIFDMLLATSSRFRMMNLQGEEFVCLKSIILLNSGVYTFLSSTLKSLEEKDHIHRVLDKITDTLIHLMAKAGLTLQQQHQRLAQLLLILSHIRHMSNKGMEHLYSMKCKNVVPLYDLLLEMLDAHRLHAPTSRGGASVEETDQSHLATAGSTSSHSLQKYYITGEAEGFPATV

Estrogen receptor [3] = biological target: T3, Estrogen receptor (Homo sapiens, UniProt P03372)
T3 sequence (P03372 whole entry): T2 sequence (whole entry)
Description: Agonist activity at human ERalpha expressed in human HEC1 cells assessed as transcriptional activation after 24 hrs by ERE-luciferase reporter gene transfection assay

Estrogen receptor beta [4] = biological target: T1, Estrogen receptor beta
Description: Agonist activity at human ERbeta in human MCF7 cells assessed as otubain 2 endogenous genes activation after 24 hrs by qPCR

Estrogen receptor [5] = biological target: T3, Estrogen receptor; remark: listed apart in the source
Description: Agonist activity at human ERalpha in human MCF7 cells assessed as progesterone receptor endogenous genes activation after 24 hrs by qPCR

Estrogen receptor beta [6] = biological target: T1, Estrogen receptor beta; remark: listed apart in the source
Description: Agonist activity at human ERbeta expressed in human HEC1 cells assessed as transcriptional activation after 24 hrs by ERE-luciferase reporter gene transfection assay

T1 sequence (Q92731 whole entry): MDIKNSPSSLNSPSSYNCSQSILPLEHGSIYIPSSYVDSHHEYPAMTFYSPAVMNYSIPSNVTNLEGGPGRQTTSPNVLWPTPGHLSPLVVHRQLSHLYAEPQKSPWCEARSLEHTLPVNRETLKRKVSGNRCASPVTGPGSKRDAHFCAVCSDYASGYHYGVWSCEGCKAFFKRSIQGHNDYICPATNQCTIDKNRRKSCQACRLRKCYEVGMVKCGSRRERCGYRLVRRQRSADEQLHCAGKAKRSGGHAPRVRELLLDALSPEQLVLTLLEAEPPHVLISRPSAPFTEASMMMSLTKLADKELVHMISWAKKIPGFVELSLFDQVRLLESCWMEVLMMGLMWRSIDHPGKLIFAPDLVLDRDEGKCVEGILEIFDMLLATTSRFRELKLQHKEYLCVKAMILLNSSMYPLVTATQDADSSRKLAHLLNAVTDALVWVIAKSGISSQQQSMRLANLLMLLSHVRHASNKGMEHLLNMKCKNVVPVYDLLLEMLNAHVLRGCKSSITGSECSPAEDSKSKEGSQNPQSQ

| SMILES | inhibition (Estrogen receptor beta [1]) | inhibition [2] | EC50 (Estrogen receptor [3]) | EC50 (Estrogen receptor beta [4]) | EC50 (Estrogen receptor [5]) | EC50 (Estrogen receptor beta [6]) |
| --- | --- | --- | --- | --- | --- | --- |
| O/N=C(/c1cc(-c2ccc(O)cc2)ccc1O)C(F)(F)F | 0.76% | 0.036% |  |  |  |  |
| CC/C(=N\O)c1cc(-c2ccc(O)c(F)c2)ccc1O | 49% | 1.9% |  |  |  |  |
| C/C(=N\O)c1cc(-c2ccc(F)cc2)ccc1O | 0.015% | < 0.005% |  |  |  |  |
| CC/C(=N\O)c1cc(-c2ccc(O)cc2)ccc1O | 46% | 3% |  |  |  |  |
| C/C(=N\O)c1cc(-c2ccc(O)c(F)c2)ccc1O | 12% | 0.16% | 194 nM | 35 nM | 2090 nM | 14.7 nM |
| C/C(=N\O)c1cc(-c2ccc(Cl)cc2)ccc1O | 0.099% | < 0.005% |  |  |  |  |
| C/C(=N\O)c1cc(-c2ccc(O)cc2)ccc1O | 46% | 0.54% | 29.3 nM | 12.7 nM | 83.8 nM | 3.97 nM |

More lines, main results first:

| inhibition (Estrogen receptor beta [1]) | inhibition [2] | SMILES | EC50 (Estrogen receptor [3]) | EC50 (Estrogen receptor beta [4]) | EC50 (Estrogen receptor [5]) | EC50 (Estrogen receptor beta [6]) |
| --- | --- | --- | --- | --- | --- | --- |
| 0.011% | < 0.005% | COc1ccc(-c2ccc(O)c(/C(C)=N/O)c2)cc1 |  |  |  |  |
| < 0.005% | < 0.005% | COc1ccc(-c2ccc(O)c(/C(C)=N/O)c2)cc1C |  |  |  |  |
| < 0.005% | < 0.005% | COc1ccc(-c2ccc(O)c(/C(C)=N/O)c2)cc1Cl |  |  |  |  |
| 1.6% | 0.1% | C/C(=N\O)c1cc(-c2ccc(O)c(C)c2)ccc1O |  |  |  |  |
| < 0.005% | < 0.005% | COc1ccc(-c2ccc(O)c(/C(C)=N/O)c2)cc1F |  |  |  |  |
| 1.1% | 0.033% | C/C(=N\O)c1cc(-c2ccc(O)c(Cl)c2)ccc1O |  |  |  |  |
